# Tested on: Hh signaling pathway (Gli1 mRNA) in C3H10T1/2 cells
# Assay: Gli1 mRNA down-regulation (qPCR) in OHC-stimulated C3H10T1/2 cells
# Format: cell-based, mouse
# Conditions: Mus musculus, C3H 10T1/2, 5 μM with OHCs 5 μM, 24 h, relative Gli1 mRNA levels compared to OHCs (set to 100%)
# Experimental: (§1) The VD3 analogues were initially assessed for their ability to inhibit the Hh signaling pathway by evaluating the effects on endogenous Gli1 mRNA levels at a single concentration (5 μM) co-administration of oxysterols (OHCs; 20(S)-hydroxycholesterol, 22(S)-hydroxycholesterol at 5 μM each) in C3H10T1/2 cells, an Hh-dependent mouse embryonic fibroblast (MEF) cell line. […] VD3 derivatives may retain some VDR agonistic activity, thereby compromising the selectivity of these compounds as Hh inhibitors. The selectivity profile of the analogues for Hh inhibition, compared to typical VDR activation, was assessed by measuring the ability to up-regulate Cyp24a1 mRNA levels in the same cellular system and by evaluating their binding to VDR using a fluorescence polarization-based competition assay (Table 1).
# (§2) Mouse embryonic fibroblast cell line (C3H10T1/2, wild-type, VDR^−/−, SuFu^−/−), mouse keratinocyte cell line (ASZ001), and human embryonic kidney cell line (HEK293T) were purchased from China Center for Type Culture Collection (CCTCC; Wuhan, Hubei, China) and cultured under standard protocols. […] Therefore, they can be used to assess the inhibitory strength of the Hh signaling and the selectivity of the VDR signaling. VDR^−/− and SuFu^−/− C3H10T1/2 cells were used to study compounds selectivity for Hh and VDR signaling. If compounds regulate Hh signaling independently of VDR, their ability to down-regulate Gli1 mRNA expression should be abolished in SuFu^−/− C3H10T1/2 cells. […] The loss of Ptch in ASZ001 cells […], so down-regulating Gli1 reflects direct Smo inhibition by the compound. Comparing results from ASZ001 and C3H10T1/2 cells highlights the compound’s inhibition of the Hh signaling pathway.
# (§3) RNA isolation in C3H10T1/2 cells was performed in 24-well plates (50,000 cells plated; TRIZOL Reagent); in ASZ001, cells were done in 35 mm dishes (300,000 cells plated; TRIZOL Reagent). cDNA synthesis was performed utilizing the SweScript All-in-One RT SuperMix Kit (Servicebio, Wuhan, China) per the manufacturer’s instructions on a BioRad S1000 Thermal Cycler (Hercules, CA, USA). qPCR (Hh signaling pathway and VDR) analysis of target genes was performed on Step OnePlus (ABI) using the Taqman Gene Expression Assays: mouse ActB (Mm00607939_s1), mouse GLI1 (Mm00494645_ml), mouse PTCH1(Mm00436026_m1), and mouse CYP24A1 (Mm00487244_ml). Relative gene expression levels were computed via the ΔΔCt method. ActinB mRNA expression levels of all samples were normalized to DMSO control ActinB mRNA levels (vehicle; set at 1.00). […] The mRNA expression levels from drug-treated samples were compared to OHCs levels (Gli1, PTCH) and DMSO control (Cyp24A1).
row,SMILES,mrna remaining at 5 µM
1,COc1ccc(C(=O)O[C@H]2CCC[C@]3(C)[C@@H]([C@H](C)COCC(C)(C)O)CC[C@@H]23)cc1 [Compound 4c],76.5 ± 7.5%
2,CC(C)COC[C@@H](C)[C@H]1CC[C@H]2[C@@H](OC(=O)c3ccc(Cl)cc3)CCC[C@]12C [Compound 3e],23.5 ± 2.7%
3,CC(C)COC[C@@H](C)[C@H]1CC[C@H]2[C@@H](OC(=O)c3ccc(F)cc3)CCC[C@]12C [Compound 3f],45.4 ± 3.1%
4,CC(C)COC[C@@H](C)[C@H]1CC[C@H]2[C@@H](OC(=O)c3cc([N+](=O)[O-])cc([N+](=O)[O-])c3)CCC[C@]12C [Compound 3g],32.1 ± 2.4%
5,C[C@H](COCC(C)(C)O)[C@H]1CC[C@H]2[C@@H](OC(=O)c3ccc(Cl)cc3)CCC[C@]12C [Compound 4e],26.1 ± 2.1%
6,C[C@H](COCC(C)(C)O)[C@H]1CC[C@H]2[C@@H](OC(=O)c3ccccc3)CCC[C@]12C [Compound 4a],43.8 ± 3.6%
7,CC(C)COC[C@@H](C)[C@H]1CC[C@H]2[C@@H](OC(=O)c3ccc([N+](=O)[O-])cc3)CCC[C@]12C [Compound 3b],74.2 ± 4.1%
8,COc1cccc(C(=O)O[C@H]2CCC[C@]3(C)[C@@H]([C@H](C)COCC(C)(C)O)CC[C@@H]23)c1 [Compound 4d],62.3 ± 4.8%
9,COc1cccc(C(=O)O[C@H]2CCC[C@]3(C)[C@@H]([C@H](C)COCC(C)C)CC[C@@H]23)c1 [Compound 3d],102 ± 8.4%
10,CC(C)COC[C@@H](C)[C@H]1CC[C@H]2[C@@H](OC(=O)c3ccccc3)CCC[C@]12C [Compound 3a],56.8 ± 3.5%
11,C[C@H](COCC(C)(C)O)[C@H]1CC[C@H]2[C@@H](OC(=O)c3ccc(O)cc3)CCC[C@]12C [Compound 4j],4.6 ± 0.8%

# Tested on: ASZ001 cells
# Assay: Anti-proliferation (MTS) in ASZ001 cells
# Format: cell-based
# Conditions: Mus musculus, 48 h incubation, mean ± SEM
row,SMILES,GI50
1,C[C@H](COCC(C)(C)O)[C@H]1CC[C@H]2[C@@H](OC(=O)c3ccc(O)cc3)CCC[C@]12C [Compound 4j],> 20 µM

# Tested on: primary Ptch-CKO MB cells
# Assay: Anti-proliferation (MTS) in primary Ptch-CKO MB cells
# Format: cell-based
# Conditions: Mus musculus, 48 h incubation, mean ± SEM
# Experimental: Ptch-CKO MB cells, derived from a conditional Patched knockout mouse, lack Ptch-like ASZ001 cells. Consequently, the inhibitory effect of the compound on Ptch-CKO MB cells directly reflects its suppression of the canonical Hh signaling pathway. Cell viability was assessed by MTS proliferation assay kit (Promega, Madison, WI, USA) according to the manufacturer’s protocol. Culture conditions and experimental protocols to determine GI50 values in the primary murine Ptch-CKO MB cells were as previously described.
row,SMILES,GI50
1,C[C@H](COCC(C)(C)O)[C@H]1CC[C@H]2[C@@H](OC(=O)c3ccc(O)cc3)CCC[C@]12C [Compound 4j],> 10 µM

# Molecular target: T1, recombinant VDR (Homo sapiens, UniProt P11473)
# T1 construct: purchased Thermo Fisher Scientific
# T1 sequence (P11473 1-427): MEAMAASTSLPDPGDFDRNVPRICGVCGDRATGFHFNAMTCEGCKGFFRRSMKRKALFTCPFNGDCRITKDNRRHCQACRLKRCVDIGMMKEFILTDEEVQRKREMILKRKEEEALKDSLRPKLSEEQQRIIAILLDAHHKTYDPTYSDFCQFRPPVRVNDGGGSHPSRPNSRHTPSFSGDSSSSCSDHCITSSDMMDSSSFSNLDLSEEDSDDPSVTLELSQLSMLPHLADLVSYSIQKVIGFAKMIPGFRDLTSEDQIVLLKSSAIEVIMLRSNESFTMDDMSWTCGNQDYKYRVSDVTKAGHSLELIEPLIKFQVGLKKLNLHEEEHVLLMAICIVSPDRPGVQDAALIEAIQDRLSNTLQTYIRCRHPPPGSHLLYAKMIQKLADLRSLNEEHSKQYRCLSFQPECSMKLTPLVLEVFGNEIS
# Assay: VDR binding, fluorescence polarization-based competition assay (PolarScreen VDR Competitor Assay Red)
# Conditions: compounds evaluated at 100 μM
# Experimental: as §1
# VDR binding assay was performed using a PolarScreen VDR Competitor Assay Red kit (Thermo Fisher Scientific, Carlsbad, CA, USA) per the manufacturer’s instructions. Compounds were evaluated at 100 μM in 2.5% final DMSO in triplicate. Calcitriol is utilized as a positive control for VDR binding.
row,SMILES,VDR Binding
1,COc1ccc(C(=O)O[C@H]2CCC[C@]3(C)[C@@H]([C@H](C)COCC(C)(C)O)CC[C@@H]23)cc1 [Compound 4c],>100 µM
2,CC(C)COC[C@@H](C)[C@H]1CC[C@H]2[C@@H](OC(=O)c3ccc(Cl)cc3)CCC[C@]12C [Compound 3e],>100 µM
3,CC(C)COC[C@@H](C)[C@H]1CC[C@H]2[C@@H](OC(=O)c3ccc(F)cc3)CCC[C@]12C [Compound 3f],>100 µM
4,CC(C)COC[C@@H](C)[C@H]1CC[C@H]2[C@@H](OC(=O)c3cc([N+](=O)[O-])cc([N+](=O)[O-])c3)CCC[C@]12C [Compound 3g],>100 µM
5,C[C@H](COCC(C)(C)O)[C@H]1CC[C@H]2[C@@H](OC(=O)c3ccc(Cl)cc3)CCC[C@]12C [Compound 4e],>100 µM
6,C[C@H](COCC(C)(C)O)[C@H]1CC[C@H]2[C@@H](OC(=O)c3ccccc3)CCC[C@]12C [Compound 4a],>100 µM
7,CC(C)COC[C@@H](C)[C@H]1CC[C@H]2[C@@H](OC(=O)c3ccc([N+](=O)[O-])cc3)CCC[C@]12C [Compound 3b],>100 µM
8,COc1cccc(C(=O)O[C@H]2CCC[C@]3(C)[C@@H]([C@H](C)COCC(C)(C)O)CC[C@@H]23)c1 [Compound 4d],>100 µM
9,COc1cccc(C(=O)O[C@H]2CCC[C@]3(C)[C@@H]([C@H](C)COCC(C)C)CC[C@@H]23)c1 [Compound 3d],>100 µM
10,CC(C)COC[C@@H](C)[C@H]1CC[C@H]2[C@@H](OC(=O)c3ccccc3)CCC[C@]12C [Compound 3a],>100 µM
11,C[C@H](COCC(C)(C)O)[C@H]1CC[C@H]2[C@@H](OC(=O)c3ccc(O)cc3)CCC[C@]12C [Compound 4j],>100 µM

# Tested on: VDR signaling (Cyp24A1 mRNA) in C3H10T1/2 cells
# Assay: Cyp24A1 mRNA up-regulation (qPCR) in C3H10T1/2 cells
# Format: cell-based, mouse
# Conditions: Mus musculus, C3H 10T1/2, 5 μM with OHCs 5 μM, 24 h, relative to DMSO (set to 1.0)
# Experimental: as §1, §2, §3
row,SMILES,fold induction at 5 µM
1,COc1ccc(C(=O)O[C@H]2CCC[C@]3(C)[C@@H]([C@H](C)COCC(C)(C)O)CC[C@@H]23)cc1 [Compound 4c],120 ± 18.6
2,CC(C)COC[C@@H](C)[C@H]1CC[C@H]2[C@@H](OC(=O)c3ccc(Cl)cc3)CCC[C@]12C [Compound 3e],67.8 ± 4.8
3,CC(C)COC[C@@H](C)[C@H]1CC[C@H]2[C@@H](OC(=O)c3ccc(F)cc3)CCC[C@]12C [Compound 3f],46.5 ± 3.4
4,CC(C)COC[C@@H](C)[C@H]1CC[C@H]2[C@@H](OC(=O)c3cc([N+](=O)[O-])cc([N+](=O)[O-])c3)CCC[C@]12C [Compound 3g],9.8 ± 1.4
5,C[C@H](COCC(C)(C)O)[C@H]1CC[C@H]2[C@@H](OC(=O)c3ccc(Cl)cc3)CCC[C@]12C [Compound 4e],105 ± 21.4
6,C[C@H](COCC(C)(C)O)[C@H]1CC[C@H]2[C@@H](OC(=O)c3ccccc3)CCC[C@]12C [Compound 4a],94.6 ± 12.7
7,CC(C)COC[C@@H](C)[C@H]1CC[C@H]2[C@@H](OC(=O)c3ccc([N+](=O)[O-])cc3)CCC[C@]12C [Compound 3b],24.6 ± 2.1
8,COc1cccc(C(=O)O[C@H]2CCC[C@]3(C)[C@@H]([C@H](C)COCC(C)(C)O)CC[C@@H]23)c1 [Compound 4d],86.8 ± 11.3
9,COc1cccc(C(=O)O[C@H]2CCC[C@]3(C)[C@@H]([C@H](C)COCC(C)C)CC[C@@H]23)c1 [Compound 3d],13.5 ± 1.1
10,CC(C)COC[C@@H](C)[C@H]1CC[C@H]2[C@@H](OC(=O)c3ccccc3)CCC[C@]12C [Compound 3a],35.7 ± 2.6
11,C[C@H](COCC(C)(C)O)[C@H]1CC[C@H]2[C@@H](OC(=O)c3ccc(O)cc3)CCC[C@]12C [Compound 4j],127 ± 20.5

# From publication PMC11855207, “Synthesis and Evaluation of Aromatic A-Ring 23-Oxavitamin D3 Analogues as Hedgehog Pathway Inhibitors” (International Journal of Molecular Sciences, 2025)
